Test results published in US20230374015A1, “INHIBITORS OF FIBROBLAST GROWTH FACTOR RECEPTOR KINASES” (Kinnate Biopharma Inc., priority 2020, published 2023).

Each compound was assayed against FGFR2 (Homo sapiens, UniProt P21802) (assay: FGFR2 Kinase Protocol - Condition 2 (Reaction Biology HotSpot radiometric kinase assay, no preincubation)). Conditions: poly[Glu:Tyr] (4:1) 0.2 mg/ml, ATP 100 microM, 2 hr room temperature.
Format: biochemical
Method in brief: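 Radiometric HotSpot format: FGFR2 (wildtype or V564F) with poly[Glu:Tyr] (4:1) at 0.2 mg/ml in HEPES pH 7.5 buffer with 1% DMSO; ATP plus [γ33P]ATP at 100 µM total, added without preincubation. Reactions ran 2 hr at room temperature, then filter-bound. IC50 from 10-dose, 3-fold series versus DMSO control.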

Sequence of FGFR2 (P21802 22-821): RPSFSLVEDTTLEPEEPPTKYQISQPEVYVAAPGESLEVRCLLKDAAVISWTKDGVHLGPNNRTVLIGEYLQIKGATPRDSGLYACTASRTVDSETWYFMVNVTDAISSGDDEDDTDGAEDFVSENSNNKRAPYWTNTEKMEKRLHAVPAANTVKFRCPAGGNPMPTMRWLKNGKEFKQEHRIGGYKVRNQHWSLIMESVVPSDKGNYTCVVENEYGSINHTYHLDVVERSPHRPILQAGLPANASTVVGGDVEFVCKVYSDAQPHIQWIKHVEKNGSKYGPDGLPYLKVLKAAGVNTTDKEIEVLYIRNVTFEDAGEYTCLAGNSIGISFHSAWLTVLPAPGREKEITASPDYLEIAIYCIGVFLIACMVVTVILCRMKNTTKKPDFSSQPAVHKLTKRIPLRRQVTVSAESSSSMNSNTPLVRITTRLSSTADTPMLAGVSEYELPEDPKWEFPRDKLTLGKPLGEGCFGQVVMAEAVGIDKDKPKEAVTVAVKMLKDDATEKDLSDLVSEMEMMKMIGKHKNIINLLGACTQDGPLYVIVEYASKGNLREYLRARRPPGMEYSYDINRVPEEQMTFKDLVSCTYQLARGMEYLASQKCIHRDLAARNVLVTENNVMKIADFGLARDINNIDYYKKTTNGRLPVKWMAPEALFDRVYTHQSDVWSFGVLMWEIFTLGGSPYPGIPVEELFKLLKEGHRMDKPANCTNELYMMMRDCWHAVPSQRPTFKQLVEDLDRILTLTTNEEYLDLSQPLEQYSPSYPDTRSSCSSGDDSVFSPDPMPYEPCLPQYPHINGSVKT

Row | SMILES | IC50
1 | C=CC(=O)N1C[C@@H](n2cc(C#Cc3cc4ncn(CC)c4cc3F)c3c(N)ncnc32)C[C@@H]1COC [Example 80, 1-[(2R,4S)-4-[4-Amino-5-[2-(1-ethyl-6-fluoro-1,3-benzodiazol-5-yl)ethynyl]pyrrolo[2,3-d]pyrimidin-7-yl]-2-(methoxymethyl)pyrrolidin-1-yl]prop-2-en-1-one] | ≤ 100 nM
2 | C=CC(=O)N1C[C@@H](n2nc(C#Cc3cc4ncn(C(F)F)c4cc3F)c3c(N)nccc32)C[C@@H]1COC [Example 83, 1-[(2R,4S)-4-(4-Amino-3-[2-[1-(difluoromethyl)-6-fluoro-1,3-benzodiazol-5-yl]ethynyl]pyrazolo[4,3-c]pyridin-1-yl)-2-(methoxymethyl)pyrrolidin-1-yl]prop-2-en-1-one] | ≤ 100 nM
3 | C=CC(=O)N1C[C@@H](n2nc(C#Cc3c(F)cc4c(ncn4CC)c3F)c3c(N)nccc32)C[C@@H]1COC [Example 86, 1-[(2R,4S)-4-[4-Amino-3-[2-(1-ethyl-4,6-difluoro-1,3-benzodiazol-5-yl)ethynyl]pyrazolo[4,3-c]pyridin-1-yl]-2-(methoxymethyl)pyrrolidin-1-yl]prop-2-en-1-one] | ≤ 100 nM
4 | C=CC(=O)N1C[C@@H](n2cc(C#Cc3cc4nc(C)[nH]c4cc3Cl)c3c(N)ncnc32)C[C@@H]1COC [Example 89, 1-[(2R,4S)-4-[4-Amino-5-[2-(6-chloro-2-methyl-1H-1,3-benzodiazol-5-yl)ethynyl]pyrrolo[2,3-d]pyrimidin-7-yl]-2-(methoxymethyl)pyrrolidin-1-yl]prop-2-en-1-one] | ≤ 100 nM
5 | C=CC(=O)N1C[C@@H](n2nc(C#Cc3cc4ncn(C)c4cc3Cl)c3c(N)ncnc32)C[C@@H]1COC [Example 90, 1-[(2R,4S)-4-[4-Amino-3-[2-(6-chloro-1-methyl-1,3-benzodiazol-5-yl)ethynyl]pyrazolo[3,4-d]pyrimidin-1-yl]-2-(methoxymethyl)pyrrolidin-1-yl]prop-2-en-1-one] | ≤ 100 nM
6 | C=CC(=O)N1C[C@@H](n2cc(C#Cc3cc4ncn(C)c4cc3Cl)c3c(N)ncnc32)C[C@@H]1COC [Example 91, 1-[(2R,4S)-4-[4-Amino-5-[2-(6-chloro-1-methyl-1,3-benzodiazol-5-yl)ethynyl]pyrrolo[2,3-d]pyrimidin-7-yl]-2-(methoxymethyl)pyrrolidin-1-yl]prop-2-en-1-one] | ≤ 100 nM
7 | C=CC(=O)N1C[C@@H](n2nc(C#Cc3c(F)cc4[nH]c(C)nc4c3F)c3c(N)ncnc32)C[C@@H]1COC [Example 94, 1-[(2R,4S)-4-[4-Amino-3-[2-(4,6-difluoro-2-methyl-1H-1,3-benzodiazol-5-yl)ethynyl]pyrazolo[3,4-d]pyrimidin-1-yl]-2-(methoxymethyl)pyrrolidin-1-yl]prop-2-en-1-one] | ≤ 100 nM
8 | C=CC(=O)N1C[C@@H](n2nc(C#Cc3c(F)cc4nc(C)[nH]c4c3F)c3c(N)nccc32)C[C@@H]1COC [Example 95, 1-[(2R,4S)-4-[4-Amino-3-[2-(4,6-difluoro-2-methyl-1H-1,3-benzodiazol-5-yl)ethynyl]pyrazolo[4,3-c]pyridin-1-yl]-2-(methoxymethyl)pyrrolidin-1-yl]prop-2-en-1-one] | ≤ 100 nM

Second part, the compound after the results:

Row | IC50 | SMILES
9 | ≤ 100 nM | C=CC(=O)N1C[C@@H](n2nc(C#Cc3cc4ncn(CC)c4cc3F)c3c(N)nccc32)C[C@@H]1COC [Example 79, 1-[(2R,4S)-4-[4-Amino-3-[2-(1-ethyl-6-fluoro-1,3-benzodiazol-5-yl)ethynyl]pyrazolo[4,3-c]pyridin-1-yl]-2-(methoxymethyl)pyrrolidin-1-yl]prop-2-en-1-one]
10 | ≤ 100 nM | C=CC(=O)N1C[C@@H](n2nc(C#Cc3cc4ncn(CC)c4cc3F)c3c(N)nccc32)C[C@@H]1COC(F)(F)F [Example 81, 1-[(2R,4S)-4-[4-Amino-3-[2-(1-ethyl-6-fluoro-1,3-benzodiazol-5-yl)ethynyl]pyrazolo[4,3-c]pyridin-1-yl]-2-[(trifluoromethoxy)methyl]pyrrolidin-1-yl]prop-2-en-1-one]
11 | ≤ 100 nM | C=CC(=O)N1C[C@@H](n2nc(C#Cc3cc4ncn(C(F)F)c4cc3F)c3c(N)ncnc32)C[C@@H]1COC [Example 82, 1-[(2R,4S)-4-(4-Amino-3-[2-[1-(difluoromethyl)-6-fluoro-1,3-benzodiazol-5-yl]ethynyl]pyrazolo[3,4-d]pyrimidin-1-yl)-2-(methoxymethyl)pyrrolidin-1-yl]prop-2-en-1-one]
12 | ≤ 100 nM | C=CC(=O)N1C[C@@H](n2cc(C#Cc3cc4ncn(C(F)F)c4cc3F)c3c(N)ncnc32)C[C@@H]1COC [Example 84, 1-[(2R,4S)-4-(4-Amino-5-[2-[1-(difluoromethyl)-6-fluoro-1,3-benzodiazol-5-yl]ethynyl]pyrrolo[2,3-d]pyrimidin-7-yl)-2-(methoxymethyl)pyrrolidin-1-yl]prop-2-en-1-one]
13 | ≤ 100 nM | C=CC(=O)N1C[C@@H](n2nc(C#Cc3c(F)cc4c(ncn4CC)c3F)c3c(N)ncnc32)C[C@@H]1COC [Example 85, 1-[(2R,4S)-4-[4-Amino-3-[2-(1-ethyl-4,6-difluoro-1,3-benzodiazol-5-yl)ethynyl]pyrazolo[3,4-d]pyrimidin-1-yl]-2-(methoxymethyl)pyrrolidin-1-yl]prop-2-en-1-one]
14 | ≤ 100 nM | C=CC(=O)N1C[C@@H](n2cc(C#Cc3c(F)cc4c(ncn4CC)c3F)c3c(N)ncnc32)C[C@@H]1COC [Example 87, 1-[(2R,4S)-4-[4-Amino-5-[2-(1-ethyl-4,6-difluoro-1,3-benzodiazol-5-yl)ethynyl]pyrrolo[2,3-d]pyrimidin-7-yl]-2-(methoxymethyl)pyrrolidin-1-yl]prop-2-en-1-one]
15 | ≤ 100 nM | C=CC(=O)N1C[C@@H](n2nc(C#Cc3cc4ncn(CC)c4cc3Cl)c3c(N)nccc32)C[C@@H]1COC [Example 88, 1-[(2R,4S)-4-[4-Amino-3-[2-(6-chloro-1-ethyl-1,3-benzodiazol-5-yl)ethynyl]pyrazolo[4,3-c]pyridin-1-yl]-2-(methoxymethyl)pyrrolidin-1-yl]prop-2-en-1-one]
16 | ≤ 100 nM | C=CC(=O)N1C[C@@H](n2nc(C#Cc3cc4ncn(CC)c4cc3Cl)c3c(N)ncnc32)C[C@@H]1COC [Example 92, 1-[(2R,4S)-4-[4-Amino-3-[2-(6-chloro-1-ethyl-1,3-benzodiazol-5-yl)ethynyl]pyrazolo[3,4-d]pyrimidin-1-yl]-2-(methoxymethyl)pyrrolidin-1-yl]prop-2-en-1-one]
17 | ≤ 100 nM | C=CC(=O)N1C[C@@H](n2cc(C#Cc3cc4ncn(CC)c4cc3Cl)c3c(N)ncnc32)C[C@@H]1COC [Example 93, 1-[(2R,4S)-4-[4-Amino-5-[2-(6-chloro-1-ethyl-1,3-benzodiazol-5-yl)ethynyl]pyrrolo[2,3-d]pyrimidin-7-yl]-2-(methoxymethyl)pyrrolidin-1-yl]prop-2-en-1-one]
18 | ≤ 100 nM | C=CC(=O)N1C[C@@H](n2nc(C#Cc3cc4nc(C)n(C)c4cc3Cl)c3c(N)ncnc32)C[C@@H]1COC [Example 96, 1-[(2R,4S)-4-[4-Amino-3-[2-(6-chloro-1,2-dimethyl-1,3-benzodiazol-5-yl)ethynyl]pyrazolo[3,4-d]pyrimidin-1-yl]-2-(methoxymethyl)pyrrolidin-1-yl]prop-2-en-1-one]
19 | ≤ 100 nM | C=CC(=O)N1C[C@@H](n2nc(C#Cc3cc4nc(C)n(C)c4cc3Cl)c3c(N)nccc32)C[C@@H]1COC [Example 97, 1-[(2R,4S)-4-[4-Amino-3-[2-(6-chloro-1,2-dimethyl-1,3-benzodiazol-5-yl)ethynyl]pyrazolo[4,3-c]pyridin-1-yl]-2-(methoxymethyl)pyrrolidin-1-yl]prop-2-en-1-one]
